Data reported in patent US20260250290A1 (BRISTOL-MYERS SQUIBB COMPANY, priority 2023, published 2026).
Structures can show the parent of a compound that is named as a salt.

Biological target: T1, full length SGK1 (Homo sapiens, UniProt O00141)
T1 construct: 125 μM full length SGK1 (Life Technologies Part #PR7358A); purchased Life Technologies PR7358A
T1 sequence (O00141 1-431): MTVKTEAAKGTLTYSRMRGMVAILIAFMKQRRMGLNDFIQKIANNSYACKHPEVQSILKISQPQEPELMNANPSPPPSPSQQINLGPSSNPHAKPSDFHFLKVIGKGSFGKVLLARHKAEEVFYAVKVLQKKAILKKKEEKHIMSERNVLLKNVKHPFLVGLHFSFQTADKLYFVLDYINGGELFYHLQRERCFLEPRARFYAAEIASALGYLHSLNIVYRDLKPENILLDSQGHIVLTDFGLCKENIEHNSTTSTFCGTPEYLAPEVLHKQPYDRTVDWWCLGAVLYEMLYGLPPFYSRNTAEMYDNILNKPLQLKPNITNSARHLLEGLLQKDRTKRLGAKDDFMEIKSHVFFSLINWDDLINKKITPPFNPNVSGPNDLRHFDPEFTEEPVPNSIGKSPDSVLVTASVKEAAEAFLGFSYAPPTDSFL
Experiment: SGK1 inhibition Assay A (Caliper LabChip electrophoretic separation of fluorescent peptide substrate and phosphorylated product)
Type: biochemical
Conditions: Assay A; 20 μM ATP, 40 min incubation; read-out: SGK1 IC50

IC50	SMILES
636 nM	CC(=O)N1CC=C(c2cc(N3CCC[C@@H](NC(=O)C4=NNC(=O)CC4)C3)c3c(N)ncnn23)C1 [Example 464, (R)-N-(1-(7-(1-acetyl-2,5-dihydro-1H-pyrrol-3-yl)-4-aminopyrrolo[2,1-f][1,2,4]triazin-5-yl)piperidin-3-yl)-6-oxo-1,4,5,6-tetrahydropyridazine-3-carboxamide]
3 nM	CC(=O)N1CC=C(c2cc(N3CCC[C@@H](NC(=O)c4sc(Cl)cc4OC4CCNCC4F)C3)c3c(N)ncnn23)C1 (stereo partly drawn) [Example 602, N-((R)-1-(7-(1-acetyl-2,5-dihydro-1H-pyrrol-3-yl)-4-aminopyrrolo[2,1-f][1,2,4]triazin-5-y1)piperidin-3-y1)-5-chloro-3-((3-fluoropiperidin-4-yl)oxy)thiophone-2-carboxamide]
67 nM	CS(=O)(=O)c1ccc(-c2cc(N3CCC[C@@H](NC(=O)c4cnn(C5CCOCC5)c4)C3)c3c(N)ncnn23)cc1 [Example 78, (R)-N-(1-(4-amino-7-(4-(methylsulfonyl)phenyl)pyrrolo[2,1-f][1,2,4]triazin-5-yl)piperidin-3-yl)-1-(tetrahydro-2H-pyran-4-yl)-1H-pyrazole-4-carboxamide]
114 nM	CC(=O)N1CC=C(c2cc(N3CCC[C@@H](NC(=O)c4cccnc4OCCN4CCN(C)CC4)C3)c3c(N)ncnn23)C1 [Example 722, (R)-N-(1-(7-(1-acetyl-2,5-dihydro-1H-pyrrol-3-yl)-4-aminopyrrolo[2,1-f][1,2,4]triazin-5-yl)piperidin-3-yl)-2-(2-(4-methylpiperazin-1-yl)ethoxy)nicotinamide]
41 nM	CS(=O)(=O)c1ccc(-c2cc(N3CCC[C@@H](NC(=O)c4cn5ccccc5n4)C3)c3c(N)ncnn23)cc1 [Example 36]
4 nM	CC(=O)N1CC=C(c2cc(N3CCC[C@@H](NC(=O)c4sc(Cl)cc4OC4CCN(C)CC4)C3)c3c(N)ncnn23)C1 [Example 579, (R)-N-(1-(7-(1-acetyl-2,5-dihydro-1H-pyrrol-3-yl)-4-aminopyrrolo[2,1-f][1,2,4]triazin-5-yl)piperidin-3-yl)-5-chloro-3-((1-methylpiperidin-4-yl)oxy)thiophene-2-carboxamide]
7 nM	Nc1ncnn2c(-c3ccnc4[nH]ccc34)cc(N3CCC[C@@H](NC(=O)c4ccc(Cl)s4)C3)c12 [Example 205, (R)-N-(1-(4-amino-7-(1H-pyrrolo[2,3-b]pyridin-4-yl)pyrrolo[2,1-f][1,2,4]triazin-5-yl)piperidin-3-yl)-5-chlorothiophene-2-carboxamide, TFA]
51 nM	CC(=O)N1CC=C(c2cc(N3CCC[C@@H](NC(=O)c4sc5ccccc5c4OC4CCN(C(=O)OC(C)(C)C)CC4)C3)c3c(N)ncnn23)C1 [Example 653, tert-butyl (R)-4-((2-((1-(7-(1-acetyl-2,5-dihydro-1H-pyrrol-3-yl)-4-aminopyrrolo[2,1-f][1,2,4]triazin-5-yl)piperidin-3-yl)carbamoyl)benzo[b]thiophen-3-yl)oxy)piperidine-1-carboxylate]
12 nM	N#CC1(C(=O)N2CC=C(c3cc(N4CCC[C@@H](NC(=O)c5sc(Cl)cc5OCCN5CCOCC5)C4)c4c(N)ncnn34)C2)CC1 [Example 264, (R)-N-(1-(4-amino-7-(1-(1-cyanocyclopropane-1-carbonyl)-2,5-dihydro-1H-pyrrol-3-yl)pyrrolo[2,1-f][1,2,4]triazin-5-yl)piperidin-3-yl)-5-chloro-3-(2-morpholinoethoxy)thiophene-2-carboxamide]
33 nM	CC(=O)N1CC=C(c2cc(N3CCC[C@@H](NC(=O)c4cccc(N5CC[C@H](O)C5)n4)C3)c3c(N)ncnn23)C1 [Example 779, N-((R)-1-(7-(1-acetyl-2,5-dihydro-1H-pyrrol-3-yl)-4-aminopyrrolo[2,1-f][1,2,4]triazin-5-yl)piperidin-3-yl)-6-((S)-3-hydroxypyrrolidin-1-yl)picolinamide]
112 nM	CS(=O)(=O)c1ccc(-c2cc(N3CCC[C@@H](NC(=O)c4ccncn4)C3)c3c(N)ncnn23)cc1 [Example 31, (R)-N-(1-(4-amino-7-(4-(methylsulfonyl)phenyl)pyrrolo[2,1-f][1,2,4]triazin-5-yl)piperidin-3-yl)pyrimidine-4-carboxamide]
23 nM	CC(=O)N1CC=C(c2cc(N3CCC[C@@H](NC(=O)c4cccc(N[C@@H]5CCN(C)C5)n4)C3)c3c(N)ncnn23)C1 [Example 760, N—((R)-1-(7-(1-acetyl-2,5-dihydro-1H-pyrrol-3-yl)-4-aminopyrrolo[2,1-f][1,2,4]triazin-5-yl)piperidin-3-yl)-6-(((R)-1-methylpyrrolidin-3-yl)amino)picolinamide]

Further lines, the compound ahead of its results:

SMILES	IC50
Nc1ncnn2c(-c3cncnc3)cc(N3CCC[C@@H](NC(=O)c4cc5ccccc5[nH]4)C3)c12 [Example 508, (R)-N-(1-(4-amino-7-(pyrimidin-5-yl)pyrrolo[2,1-f][1,2,4]triazin-5-yl)piperidin-3-yl)-1H-indole-2-carboxamide]	195 nM
Nc1ncnn2c(-c3ccnc(F)c3)cc(N3CCC[C@@H](NC(=O)c4csc(Cl)c4)C3)c12 [Example 161, (R)-N-(1-(4-amino-7-(2-fluoropyridin-4-yl)pyrrolo[2,1-f][1,2,4]triazin-5-yl)piperidin-3-yl)-5-chlorothiophone-3-carboxamide]	2 nM
CC(C)Cn1cc(-c2cc(N3CCC[C@@H](NC(=O)c4[nH]c5ccccc5c4OCCN(C)C)C3)c3c(N)ncnn23)ccc1=O [Example 369, (R)-N-(1-(4-amino-7-(1-isobutyl-6-oxo-1,6-dihydropyridin-3-yl)pyrrolo[2,1-f][1,2,4]triazin-5-yl)piperidin-3-yl)-3-(2-(dimethylamino)ethoxy)-1H-indole-2-carboxamide]	196 nM
Nc1ccc2[nH]nc(C(=O)N[C@@H]3CCCN(c4cc(-c5cncnc5)n5ncnc(N)c45)C3)c2c1 [Example 690, (R)-5-amino-N-(1-(4-amino-7-(pyrimidin-5-yl)pyrrolo[2,1-f][1,2,4]triazin-5-yl)piperidin-3-yl)-1H-indazole-3-carboxamide]	507 nM
C#Cc1cc(N2CCC[C@@H](NC(=O)c3ccc(Cl)s3)C2)c2c(N)ncnn12 [Example 862, (R)—N-(1-(4-amino-7-ethynylpyrrolo[2,1-f][1,2,4]triazin-5-yl)piperidin-3-yl)-5-chlorothiophene-2-carboxamide]	111 nM
CC1CN(CCOc2cc(Cl)sc2C(=O)N[C@@H]2CCCN(c3cc(-c4ccnc(C(F)F)c4)n4ncnc(N)c34)C2)CCO1 (stereo partly drawn) [Example 295, N-((R)-1-(4-amino-7-(2-(difluoromethyl)pyridin-4-yl)pyrrolo[2,1-f][1,2,4]triazin-5-yl)piperidin-3-yl)-5-chloro-3-(2-(2-methylmorpholino)ethoxy) thiophene-2-carboxamide]	7 nM
Nc1ncnn2c(-c3ccc(OCC(F)F)nc3)cc(N3CCC[C@@H](NC(=O)c4ccc(Cl)s4)C3)c12 [Example 534, (R)-N-(1-(4-amino-7-(6-(2,2-difluoroethoxy)pyridin-3-yl)pyrrolo[2,1-f][1,2,4]triazin-5-yl)piperidin-3-yl)-5-chlorothiophene-2-carboxamide]	8 nM
CS(=O)(=O)c1ccc(-c2cc(N3CCC[C@@H](NC(=O)c4cc(Cl)ns4)C3)c3c(N)ncnn23)cc1 [Example 72, (R)-N-(1-(4-amino-7-(4-(methylsulfonyl)phenyl)pyrrolo[2,1-f][1,2,4]triazin-5-yl)piperidin-3-yl)-3-chloroisothiazole-5-carboxamide, TFA]	13 nM
